# PubChem BioAssay AID1996
# Details: buffer; pH 7.4; 200.0 µM
row,Compound,solubility kinetic [µg/mL]
1,CC1CC(C)CN(C(=O)COC(=O)c2ccc([N+](=O)[O-])o2)C1 (centres undefined),> 46.5
2,CCOc1ccccc1C(=O)NC(C(=O)Nc1cccnc1)C(C)C (centres undefined),33.7
3,CCC(C(=O)NC1CCCCCC1)c1ccccc1 (centres undefined),33.4
4,Cc1noc(C)c1C(=O)Nc1cccc2ncccc12,> 40.1
5,O=C(CCCOc1ccccc1)NC(=S)Nc1ccccc1,1.8
6,CC(=O)C1=C(C)N2CCN=C2S1,> 27.3
7,CC(C)(C)N(Cc1ccccc1)C(=O)COC(=O)c1ccc(N2CCCC2=O)cc1,2.5
8,O=C(/C=C/c1ccco1)NCCc1ccc(F)cc1,10.3
9,Cc1onc(-c2ccccc2)c1C(=O)OCC(=O)N(C)c1ccccc1,39.2
10,CC1CCCC(NC(=O)CCC(=O)c2ccc(F)cc2)C1C (centres undefined),33.8
11,Cc1cc(NC(=O)COC(=O)C2CC2)ccc1Br,> 46.8
12,N#C/C(=C\c1ccc(F)cc1F)S(=O)(=O)c1ccccn1,42.4
13,Cc1ccccc1C(=O)NCCCNC(=O)c1ccccn1,> 44.6
14,CCCS(=O)(=O)N1CCCC(C(=O)Oc2ccc(Cl)cc2)C1 (centres undefined),1.5
15,Cc1ccc(S(=O)(=O)N2CCC[C@H]2C(=O)Nc2ccc(F)cc2C)cc1,> 56.5
16,Cc1ccc2nc(N3CCCCC3)c(C=O)c(=O)n2c1,39.1
17,COc1ccc2oc(=O)c(C(=O)NCc3ccc(F)cc3)cc2c1,0.8
18,Cc1ccc2[nH]c(=O)cc(C(=O)OCC(=O)c3ccc(F)cc3)c2c1,1.5
19,O=C(CSc1ccccc1C(=O)O)NC1CCCCCC1,> 46.1
20,COc1ccccc1C(=O)Nc1ccc2c(c1)n(C)c(=O)n2C,43.6

row,Compound,solubility kinetic [µg/mL]
1,COC(=O)c1ccccc1NC(=O)NC1CCCCC1,2.6
2,O=C(COC(=O)COc1ccccc1)Nc1ccc2c(c1)OCCO2,15.3
3,COc1ccc(OC)c2c1sc(=NC(=O)C1CC1)n2C,0.9
4,Cc1cccc(NC(=O)Cn2c(=O)oc3ccccc32)c1C,6.6
5,CN(Cc1ccccc1)S(=O)(=O)c1ccc(Cl)c(C(=O)O)c1,> 51
6,O=C(NCC(=O)N1CCN(c2ncccn2)CC1)c1ccccc1F,> 51.5
7,O=c1oc2ccccc2c(NCCO)c1[N+](=O)[O-],> 37.5
8,Cc1cccc(-c2noc(C(C)NC(=O)c3ccco3)n2)c1 (centres undefined),32.9
9,Cc1ccccc1NCN1C(=O)C2CCC(C)(C1=O)C2(C)C (centres undefined),30.6
10,O=C(N/N=C/c1ccccn1)c1cccnc1,> 33.9
11,CN1C(=O)c2ccc(C(=O)NCc3ccco3)cc2C1=O,> 42.6
12,CCCN1C(=O)c2ccccc2NC1c1ccc(O)c(OCC)c1 (centres undefined),> 49
13,C=CCNC(=O)c1ccc([N+](=O)[O-])c(Cl)c1,> 36.1
14,COc1ccc(NC(=O)C2C3CCC(O3)C2C(=O)O)cc1OC (centres undefined),> 48.2
15,COc1ccc(Cl)cc1NC(=O)CN1C(=O)NC(Cc2c[nH]c3ccccc23)C1=O (centres undefined),6.7
16,CC(=O)Nc1ccc(Oc2ccccc2)cc1,33.6
17,Cc1ncc([N+](=O)[O-])n1CC(=O)N/N=C/c1ccccc1F,> 45.8
18,O=C(CC(c1ccccc1)c1ccccc1)Nc1ccc(C(=O)O)cc1,> 51.8
19,O=C(NCc1ccccc1Cl)C1CC(=O)N(Cc2ccccc2)C1 (centres undefined),> 51.4
20,CC1CC(C)CN(C(=O)c2cc3ccccc3o2)C1 (centres undefined),28.7

row,Compound,solubility kinetic [µg/mL]
1,COc1ccccc1Nc1ccc(C(=O)O)cc1[N+](=O)[O-],> 43.2
2,CCOc1ccccc1NC(=O)C(=O)CC(=O)c1cccc(OC)c1,9.6
3,Cc1ccc(OCCCCCCN2CCNCC2)cc1.O=C(O)C(=O)O,> 55
4,Cc1ccc(C(=O)OCc2nc3ccsc3c(=O)[nH]2)o1,> 43.5
5,S=C(NCCc1ccccc1)N1CCCC1,> 35.2
6,CC(C)c1ccccc1NC(=O)C1C2C=CC(C2)C1C(=O)O (centres undefined),42.1
7,Cn1ccnc1Sc1ccccc1[N+](=O)[O-],24.1
8,CCCn1c(CCl)nc2cc(S(=O)(=O)N3CCOCC3)ccc21,0.6
9,Cc1ccc(C)c(OCC(=O)Nc2ccc(N3CCOCC3)cc2)c1,6.1
10,O=C(Nc1cc([N+](=O)[O-])ccc1N1CCCC1)c1cccs1,4.1
11,COc1cc(NC(=O)COC(=O)CCc2nc3ccccc3c(=O)[nH]2)cc(OC)c1,60.7
12,COCc1nc2ccccc2n1CCc1ccccc1,> 40
13,COc1cc(/C=C/[N+](=O)[O-])ccc1OC(=O)c1cccnc1,3.7
14,Cc1ccc(Sc2c([N+](=O)[O-])c(=O)n(C)c3ccccc23)cc1,< 0.3
15,Cn1cc(/C=C/C(=O)c2ccccc2)c2ccccc21,0.7
16,O=C(COc1ccc2ccc(=O)oc2c1)N1CCc2ccccc21,< 0.7
17,O=C(c1cccs1)N1CCN(c2ccc(Cl)cc2)CC1,39.2
18,CCOC(=O)c1cnc(COc2ccc(OC)cc2)[nH]c1=O,44.7
19,Cc1noc(C)c1COC(=O)c1cccnc1Cl,> 40
